Laboratory results published in patent US20160158179A1, “NANOEMULSION THERAPEUTIC COMPOSITIONS AND METHODS OF USING THE SAME” (THE REGENTS OF THE UNIVERSITY OF MICHIGAN, priority 2008, published 2016).
In brackets after ≈: the same amount, converted by molar mass.

Columns and labels:
[1] = system: H. influenzae clinical isolates; experiment: MIC and MBC susceptibility assays (CLSI); type: cell-based, Haemophilus influenzae; conditions: for MIC 50: Haemophilus influenzae, all H. influenzae strains of Table 6, control antibiotics
Acinetobacter baumannii [2] = experiment: MIC determination, CLSI microdilution with alamar blue; type: cell-based; conditions: A. baumannii (n = 5)
[3] = system: Stenotrophomonas maltophilia; experiment: as above; type: cell-based; conditions: S. maltophilia (n = 5)
[4] = system: Pseudomonas, Burkholderia, Acinetobacter and Stenotrophomonas; experiment: MIC and MBC determination (CLSI, alamar blue), all strains of Example 8
[5] = system: Stenotrophomonas maltophilia; experiment: MIC and MBC determination (CLSI, alamar blue), CF isolates
Pseudomonas aeruginosa [6] = experiment: as above; conditions: Pseudomonas
Burkholderia cenocepacia = experiment: as above
Acinetobacter baumannii [7] = experiment: MIC and MBC determination (CLSI, alamar blue)
[8] = system: H. influenzae clinical isolates; conditions: ATCC H. influenzae 49247 quality control isolate; acceptable QC range; cited from earlier work
Pseudomonas aeruginosa [9] = experiment: MIC determination, CLSI microdilution with alamar blue; type: cell-based; conditions: Pseudomonas aeruginosa (n = 5); nanoemulsions in the presence of 5 mM EDTA; in µg/mL

CCC[C@@H]1C[C@@H](C(=O)N[C@@H]([C@H]2O[C@H](SC)[C@H](O)[C@@H](O)[C@H]2O)[C@H](C)Cl)N(C)C1 [Cli, clindamycin]
MIC 50 [1]: 16 µg/mL (≈ 37.6 µM)

O=C(O)CN(CCN(CC(=O)O)CC(=O)O)CC(=O)O [EDTA, ethylenediaminetetraacetic acid]
number of strains inhibited by EDTA alone (Acinetobacter baumannii [2]): 3 | number of strains inhibited by EDTA alone [3]: 5 | EDTA concentration inhibiting growth of H. influenzae ([1]; EDTA alone): ≥ 2 mM

C[C@@H](O)[C@H]1C(=O)N2C(C(=O)O)=C(SCCN=CN)C[C@H]12 [Imipenem]
MIC 90 [4]: ≥ 2 µg/mL | MIC 50 ([5]; Stenotrophomonas): >32 µg/mL

CO/N=C(\C(=O)N[C@@H]1C(=O)N2C(C(=O)[O-])=C(C[N+]3(C)CCCC3)CS[C@H]12)c1csc(N)n1 [Cefepime]
MIC 50 (Pseudomonas aeruginosa [6]): 2 µg/mL (≈ 4.16 µM) | MIC 90 (Pseudomonas aeruginosa [6]): 32 µg/mL (≈ 66.6 µM) | MIC 90 (Burkholderia cenocepacia; Burkholderia): >32 µg/mL | MIC 50 (Burkholderia cenocepacia; Burkholderia cenocepacia): 32 µg/mL (≈ 66.6 µM) | MIC 90 (Burkholderia cenocepacia; Burkholderia cenocepacia): > 32 µg/mL | MIC 90 [4]: ≥ 2 µg/mL | MBC ([4]; read-out: MBC90): > 32 µg/mL | MIC 50 (Acinetobacter baumannii [7]; Acinetobacter): 32 µg/mL (≈ 66.6 µM) | MIC 90 (Acinetobacter baumannii [7]; Acinetobacter): >32 µg/mL | MIC 50 (Acinetobacter baumannii [7]; Acinetobacter baumannii): 32 µg/mL (≈ 66.6 µM) | MIC 90 (Acinetobacter baumannii [7]; Acinetobacter baumannii): > 32 µg/mL | QC MIC range [8]: C (QC MIC range is 0.5-2) μg/ml | susceptibility of the majority of isolates by MIC90 values [1]: susceptible | MIC 50 [1]: 0.125 µg/mL (≈ 0.26 µM) | MIC 50 ([5]; Stenotrophomonas): >32 µg/mL | MIC 90 ([5]; Stenotrophomonas): >32 µg/mL | MIC 90 ([5]; Stenotrophomonas maltophilia): > 32 µg/mL

CN(C)[C@@H]1C(O)=C(C(N)=O)C(=O)[C@@]2(O)C(O)=C3C(=O)c4c(O)cccc4[C@@](C)(O)[C@H]3C[C@@H]12 [Tetracycline]
MIC 50 [1]: 2 µg/mL (≈ 4.5 µM)

CC[C@H]1OC(=O)[C@H](C)[C@@H](O[C@H]2C[C@@](C)(OC)[C@@H](O)[C@H](C)O2)[C@H](C)[C@@H](O[C@@H]2O[C@H](C)C[C@H](N(C)C)[C@H]2O)[C@](C)(O)C[C@@H](C)CN(C)[C@H](C)[C@@H](O)[C@]1(C)O [Azi, azithromycin]
QC MIC range [8]: A (QC MIC range is 1-4) μg/ml | susceptibility of the majority of isolates by MIC90 values [1]: susceptible | MIC 50 [1]: 2 µg/mL (≈ 2.67 µM)

CC1(C)S[C@@H]2[C@H](NC(=O)[C@H](N)c3ccccc3)C(=O)N2[C@H]1C(=O)O [Amp, ampicillin]
QC MIC range [8]: B (QC MIC range is 2-8) μg/ml | MIC 50 [1]: > 32 µg/mL

Gentamicin
MIC Range (Pseudomonas aeruginosa [9]): <=2-4
